In US8802597B2, “Herbicidal pyrimidines” (E I du Pont de Nemours and Company, priority 2003, dated 2014):

How the values were obtained:
Assay in all cases: Test C pre/postemergence
Format in all cases: in vivo
[1] = tested on: Surinam grass (Brachiaria decumbens); details: for Surinam Grass plant response rating: scale 0 to 100 (0 no effect, 100 complete control)
Summary of the method: (§1)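 Test compounds, formulated in a non-phytotoxic solvent mix with surfactant, were applied to freshly planted seeds and, at the same time, to emerged plants at 1- to 4-leaf stage (2 to 18 cm). After 12 to 14 days in the greenhouse, response was scored visually versus controls, 0 = no effect, 100 = complete control.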

[2] = tested on: cocklebur (Xanthium strumarium); details: for Cocklebur plant response rating: scale 0 to 100 (0 no effect, 100 complete control)
Summary of the method: as §1

[3] = tested on: common (oilseed) sunflower (Helianthus annuus); details: Preemergence
Summary of the method: as §1

corn (Zea mays) = details: for Corn plant response rating: scale 0 to 100 (0 no effect, 100 complete control)
Summary of the method: as §1

[4] = tested on: crabgrass (Digitaria sanguinalis); details: for Crabgrass plant response rating: scale 0 to 100 (0 no effect, 100 complete control)
Summary of the method: as §1

[5] = tested on: eastern black nightshade (Solanum ptycanthum); details: Preemergence
Summary of the method: as §1

[6] = tested on: giant foxtail (Setaria faberii); details: for Foxtail, Giant plant response rating: scale 0 to 100 (0 no effect, 100 complete control)
Summary of the method: as §1

[7] = tested on: johnsongrass (Sorghum halepense); details: for Johnsongrass plant response rating: scale 0 to 100 (0 no effect, 100 complete control)
Summary of the method: as §1

kochia (Kochia scoparia) = details: for Kochia plant response rating: scale 0 to 100 (0 no effect, 100 complete control)
Summary of the method: as §1

[8] = tested on: lambsquarters (Chenopodium album); details: for Lambsquarters plant response rating: scale 0 to 100 (0 no effect, 100 complete control)
Summary of the method: as §1

[9] = tested on: morningglory (Ipomoea coccinea); details: for Morningglory plant response rating: scale 0 to 100 (0 no effect, 100 complete control)
Summary of the method: as §1

soybean (Glycine max) = details: for Soybean plant response rating: scale 0 to 100 (0 no effect, 100 complete control)
Summary of the method: as §1

[10] = Postemergence, 250 g ai/ha, scale 0 to 100
[11] = Preemergence, 31 g ai/ha, scale 0 to 100, 0 no effect, 100 complete control
[12] = Preemergence, 62 g ai/ha, scale 0 to 100, 0 no effect, 100 complete control
[13] = Preemergence, 125 g ai/ha, scale 0 to 100
[14] = Preemergence, 250 g ai/ha, scale 0 to 100
[15] = 31 g ai/ha, scale 0 to 100, 0 no effect, 100 complete control
[16] = 62 g ai/ha, scale 0 to 100, 0 no effect, 100 complete control

## CCCCOC(=O)c1nc(C2CC2)nc(N)c1Br [Compound 16]
[1]; Postemergence, 31 g ai/ha
  Plant response rating (scale of 0 to 100), Surinam Grass: 0
[1]; Postemergence, 62 g ai/ha
  Surinam Grass plant response rating: 0
[1]; Postemergence, 125 g ai/ha
  Surinam Grass plant response rating: 25
[1]; [10]
  Plant response rating, Surinam Grass: 55
[1]; [11]
  Plant response rating, Surinam Grass: 0
[1]; [12]
  Plant response rating, Surinam Grass: 0
[1]; [13]
  Plant response rating, Surinam Grass: 15
[1]; [14]
  Plant response rating, Surinam Grass: 80
[2]; Postemergence, 31 g ai/ha
  Plant response rating (scale of 0 to 100), Cocklebur: 75
[2]; Postemergence, 62 g ai/ha
  Cocklebur plant response rating: 95
[2]; Postemergence, 125 g ai/ha
  Cocklebur plant response rating: 100
[2]; [10]
  Plant response rating, Cocklebur: 100
[2]; [11]
  Plant response rating, Cocklebur: 45
[2]; [12]
  Plant response rating, Cocklebur: 95
[2]; [13]
  Plant response rating, Cocklebur: 95
[2]; [14]
  Plant response rating, Cocklebur: 100
[3]; [15]
  Plant response rating, Sunflower: 20
[3]; [16]
  Plant response rating, Sunflower: 85
[3]; 125 g ai/ha, scale 0 to 100
  Plant response rating, Sunflower: 100
[3]; 250 g ai/ha, scale 0 to 100
  Plant response rating, Sunflower: 100
Corn (Zea mays); Postemergence, 31 g ai/ha
  Plant response rating (scale of 0 to 100), Corn: 0
Corn (Zea mays); Postemergence, 62 g ai/ha
  Corn plant response rating: 0
Corn (Zea mays); Postemergence, 125 g ai/ha
  Corn plant response rating: 20
Corn (Zea mays); [10]
  Plant response rating, Corn: 55
Corn (Zea mays); [11]
  Plant response rating, Corn: 0
Corn (Zea mays); [12]
  Plant response rating, Corn: 15
Corn (Zea mays); [13]
  Plant response rating, Corn: 20
Corn (Zea mays); [14]
  Plant response rating, Corn: 75
[4]; Postemergence, 31 g ai/ha
  Plant response rating (scale of 0 to 100), Crabgrass: 0
[4]; Postemergence, 62 g ai/ha
  Crabgrass plant response rating: 15
[4]; Postemergence, 125 g ai/ha
  Crabgrass plant response rating: 45
[4]; [10]
  Plant response rating, Crabgrass: 75
[4]; [11]
  Plant response rating, Crabgrass: 0
[4]; [12]
  Plant response rating, Crabgrass: 0
[4]; [13]
  Plant response rating, Crabgrass: 65
[4]; [14]
  Plant response rating, Crabgrass: 95
[5]; [15]
  Plant response rating, Nightshade: 55
[5]; [16]
  Plant response rating, Nightshade: 90
[5]; 125 g ai/ha, scale 0 to 100
  Plant response rating, Nightshade: 95
[5]; 250 g ai/ha, scale 0 to 100
  Plant response rating, Nightshade: 100
[6]; Postemergence, 31 g ai/ha
  Plant response rating (scale of 0 to 100), Foxtail, Giant: 0
[6]; Postemergence, 62 g ai/ha
  Foxtail, Giant plant response rating: 20
[6]; Postemergence, 125 g ai/ha
  Foxtail, Giant plant response rating: 55
[6]; [10]
  Plant response rating, Foxtail, Giant: 65
[6]; [11]
  Plant response rating, Foxtail, Giant: 0
[6]; [12]
  Plant response rating, Foxtail, Giant: 0
[6]; [13]
  Plant response rating, Foxtail, Giant: 0
[6]; [14]
  Plant response rating, Foxtail, Giant: 75
[7]; Postemergence, 31 g ai/ha
  Plant response rating (scale of 0 to 100), Johnsongrass: 0
[7]; Postemergence, 62 g ai/ha
  Johnsongrass plant response rating: 0
[7]; Postemergence, 125 g ai/ha
  Johnsongrass plant response rating: 60
[7]; [10]
  Plant response rating, Johnsongrass: 70
[7]; [11]
  Plant response rating, Johnsongrass: 0
[7]; [12]
  Plant response rating, Johnsongrass: 40
[7]; [13]
  Plant response rating, Johnsongrass: 65
[7]; [14]
  Plant response rating, Johnsongrass: 80
Kochia (Kochia scoparia); Postemergence, 31 g ai/ha
  Plant response rating (scale of 0 to 100), Kochia: 95
Kochia (Kochia scoparia); Postemergence, 62 g ai/ha
  Kochia plant response rating: 100
Kochia (Kochia scoparia); Postemergence, 125 g ai/ha
  Kochia plant response rating: 100
Kochia (Kochia scoparia); [10]
  Plant response rating, Kochia: 100
Kochia (Kochia scoparia); [11]
  Plant response rating, Kochia: 90
Kochia (Kochia scoparia); [12]
  Plant response rating, Kochia: 95
Kochia (Kochia scoparia); [13]
  Plant response rating, Kochia: 100
Kochia (Kochia scoparia); [14]
  Plant response rating, Kochia: 100
[8]; Postemergence, 31 g ai/ha
  Plant response rating (scale of 0 to 100), Lambsquarters: 95
[8]; Postemergence, 62 g ai/ha
  Lambsquarters plant response rating: 100
[8]; Postemergence, 125 g ai/ha
  Lambsquarters plant response rating: 100
[8]; [10]
  Plant response rating, Lambsquarters: 100
[8]; [11]
  Plant response rating, Lambsquarters: 95
[8]; [12]
  Plant response rating, Lambsquarters: 95
[8]; [13]
  Plant response rating, Lambsquarters: 100
[8]; [14]
  Plant response rating, Lambsquarters: 100
[9]; Postemergence, 31 g ai/ha
  Plant response rating (scale of 0 to 100), Morningglory: 85
[9]; Postemergence, 62 g ai/ha
  Morningglory plant response rating: 95
[9]; Postemergence, 125 g ai/ha
  Morningglory plant response rating: 100
[9]; [10]
  Plant response rating, Morningglory: 100
[9]; [11]
  Plant response rating, Morningglory: 65
[9]; [12]
  Plant response rating, Morningglory: 95
[9]; [13]
  Plant response rating, Morningglory: 100
[9]; [14]
  Plant response rating, Morningglory: 100
Soybean (Glycine max); Postemergence, 31 g ai/ha
  Plant response rating (scale of 0 to 100), Soybean: 85
Soybean (Glycine max); Postemergence, 62 g ai/ha
  Soybean plant response rating: 95
Soybean (Glycine max); Postemergence, 125 g ai/ha
  Soybean plant response rating: 100
Soybean (Glycine max); [10]
  Plant response rating, Soybean: 100
Soybean (Glycine max); [11]
  Plant response rating, Soybean: 75
Soybean (Glycine max); [12]
  Plant response rating, Soybean: 85
Soybean (Glycine max); [13]
  Plant response rating, Soybean: 100
Soybean (Glycine max); [14]
  Plant response rating, Soybean: 100
